Reference: US20090143454A1, “Pyrazoline Derivatives and Their Use As Pesticides” (BAYER CROPSCIENCE AG, priority 2001, published 2009)

Tests used:
Type in all cases: in vivo
[1] = system: Heliothis virescens caterpillars; assay: Heliothis virescens test; settings: 500 ppm, soyabean shoots dipped
Protocol: (§1) To produce a suitable preparation of active compound, 1 part by weight of active compound is mixed with the stated amounts of solvent and emulsifier, and the concentrate is diluted with emulsifier-containing water to the desired concentration.
Soyabean shoots (Glycine max) are treated by being dipped into the preparation of active compound of the desired concentration and are populated with Heliothis virescens caterpillars while the leaves are still moist.
(§2) After the desired period of time, the kill in % is determined. 100% means that all caterpillars have been killed; 0% means that none of the caterpillars have been killed.

[2] = system: larvae of the mustard beetle (Phaedon cochleariae); assay: Phaedon larvae test; settings: 168 h, cabbage leaves dipped, after 7 d, read-out: Kill rate in % after 7 d
Protocol: To produce a suitable preparation of active compound, 1 part by weight of active compound is mixed with the stated amounts of solvent and emulsifier, and the concentrate is diluted with emulsifier-containing water to the desired concentration. Cabbage leaves (Brassica oleracea) are treated by being dipped into the preparation of active compound of the desired concentration and are populated with larvae of the mustard beetle (Phaedon cochleariae) while the leaves are still moist.

[3] = system: caterpillars of the diamond back moth (Plutella xylostella); assay: Plutella test; settings: 500 ppm, cabbage leaves dipped
Protocol: as §1
Cabbage leaves (Brassica oleracea) are treated by being dipped into the preparation of active compound of the desired concentration and are populated with caterpillars of the diamond back moth (Plutella xylostella) while the leaves are still moist.
as §2

[4] = system: caterpillars of the army worm (Spodoptera frugiperda); assay: Spodoptera frugiperda test; settings: 168 h, cabbage leaves dipped, after 7 d, read-out: Kill rate in % after 7 d
Protocol: as §1
Cabbage leaves (Brassica oleracea) are treated by being dipped into the preparation of active compound of the desired concentration and are populated with caterpillars of the army worm (Spodoptera frugiperda) while the leaves are still moist.
as §2

[5] = system: Heliothis virescens larvae; assay: Test for persistency: Heliothis virescens; settings: 20 ppm, cotton plants sprayed
Protocol: as §1
Cotton plants (Gossypium hirsutum) are sprayed with a preparation of active compound of the desired concentration. After the stated number of days, Heliothis virescens larvae are, in infection chambers, placed on the treated leaves.
as §2

[6] = system: larvae of the army worm (Spodoptera frugiperda); assay: Test for persistency: Spodoptera frugiperda; settings: 20 ppm, cotton plants sprayed
Protocol: as §1
Cotton plants (Gossypium hirsutum) are sprayed with a preparation of active compound of the desired concentration. After the stated number of days, larvae of the army worm (Spodoptera frugiperda) are, in infection chambers, placed on the treated leaves.
as §2

Lucilia cuprina larvae = assay: Blowfly larvae test/development-inhibitory action; settings: after 14 d
Protocol: (§3) 20 mg of active compound are dissolved in 1 ml of dimethyl sulphoxide. More dilute concentrations are prepared by dilution with distilled water.
About 20 Lucilia cuprina larvae are introduced into a test tube which contains about 1 cm^3 of horsemeat and 0.5 ml of the preparation of active compound to be tested. The activity of the preparation of active compound is determined after 24 and 48 hours. The test tubes are transferred into a beaker whose bottom is covered with sand. After a further 2 days, the test tubes are removed and the pupae are counted.
The activity of the preparation of active compound is assessed using the number of flies that have hatched after 1.5 times the development period of an untreated control. 100% means that none of the flies have hatched; 0% means that all of the flies have hatched normally.

Periplaneta americana = assay: Cockroach test; settings: dipped 1 minute, after 7 days
Protocol: as §3
4 test animals are dipped for 1 minute into the preparation of active compound to be tested. After transfer into a plastic beaker and storage for 7 days in an air-conditioned room the killing rate is determined. 100% means, that all cockroaches have been killed, 0% means, that none of the cockroaches have been killed.

N#Cc1cnn(C2CN(C(=O)Nc3ccc(OC(F)(F)F)cc3)N=C2c2ccc(Cl)cc2)c1 (centres unmarked) [drawing 38]
Kill rate in % after 7 d [1]: 100%

N#Cc1cnn(C2CN(C(=O)Nc3ccc(C(F)(F)F)cc3)N=C2c2ccc(Cl)cc2)c1 (centres unmarked) [drawing 39]
Kill rate in % after 7 d [1]: 100%

N#Cc1cnn(C2CN(C(=O)Nc3ccc(Cl)cc3)N=C2c2ccc(Cl)cc2)c1 (centres unmarked) [drawing 40]
Kill rate in % after 7 d [1]: 100%

N#Cc1cnn(C2CN(C(=O)Nc3ccc(SC(F)(F)F)cc3)N=C2c2ccc(Cl)cc2)c1 (centres unmarked) [drawing 41]
Kill rate in % after 7 d [1]: 100%

N#Cc1cnn(C2CN(C(=O)Nc3ccc(OC(F)(F)F)cc3)N=C2c2ccc(Cl)cc2)c1 (centres unmarked) [drawing 43]
pest or weed control at 500 ppm [2]: 100%

N#Cc1cnn(C2CN(C(=O)Nc3ccc(Cl)cc3)N=C2c2ccc(Cl)cc2)c1 (centres unmarked) [drawing 44]
pest or weed control at 500 ppm [2]: 100%

COC(=O)N(C(=O)N1CC(n2cc(C#N)cn2)C(c2ccc(Cl)cc2)=N1)c1ccc(OC(F)(F)F)cc1 (centres unmarked) [drawing 45]
pest or weed control at 500 ppm [2]: 100%

N#CCN(C(=O)N1CC(n2cc(C#N)cn2)C(c2ccc(Cl)cc2)=N1)c1ccc(OC(F)(F)F)cc1 (centres unmarked) [drawing 46]
pest or weed control at 500 ppm [2]: 100%

CCOC(=O)N(C(=O)N1CC(n2cc(C#N)cn2)C(c2ccc(Cl)cc2)=N1)c1ccc(OC(F)(F)F)cc1 (centres unmarked) [drawing 47]
pest or weed control at 500 ppm [2]: 100%

N#Cc1cnn(C2CN(C(=O)Nc3ccc(OC(F)(F)F)cc3)N=C2c2ccc(Br)cc2)c1 (centres unmarked) [drawing 49]
pest or weed control at 500 ppm [2]: 100%

N#Cc1cnn(C2CN(C(=O)Nc3ccc(SC(F)(F)F)cc3)N=C2c2ccc(Br)cc2)c1 (centres unmarked) [drawing 50]
pest or weed control at 500 ppm [2]: 100%

N#Cc1cnn(C2CN(C(=O)Nc3ccc(OC(F)(F)F)cc3)N=C2c2ccc(I)cc2)c1 (centres unmarked) [drawing 51]
pest or weed control at 500 ppm [2]: 100%

N#Cc1cnn(C2CN(C(=O)Nc3ccc(S(=O)(=O)C(F)(F)F)cc3)N=C2c2ccc(Cl)cc2)c1 (centres unmarked) [drawing 52]
pest or weed control at 500 ppm [2]: 100%

N#Cc1cnn(C2CN(C(=O)Nc3ccc(OC(F)(F)F)cc3)N=C2c2ccc(Cl)cc2)c1 (centres unmarked) [drawing 53]
Kill rate in % after 7 d [3]: 100%

N#Cc1cnn(C2CN(C(=O)Nc3ccc(C(F)(F)F)cc3)N=C2c2ccc(Cl)cc2)c1 (centres unmarked) [drawing 54]
Kill rate in % after 7 d [3]: 100%

N#Cc1cnn(C2CN(C(=O)Nc3ccc(Cl)cc3)N=C2c2ccc(Cl)cc2)c1 (centres unmarked) [drawing 55]
Kill rate in % after 7 d [3]: 100%

N#Cc1cnn(C2CN(C(=O)Nc3ccc(SC(F)(F)F)cc3)N=C2c2ccc(Cl)cc2)c1 (centres unmarked) [drawing 56]
Kill rate in % after 7 d [3]: 100%

N#Cc1cnn(C2CN(C(=O)Nc3ccc(C(F)(F)F)cc3)N=C2c2ccc(Cl)cc2)c1 (centres unmarked) [drawing 62]
pest or weed control at 500 ppm [4]: 100%

N#CCN(C(=O)N1CC(n2cc(C#N)cn2)C(c2ccc(Cl)cc2)=N1)c1ccc(OC(F)(F)F)cc1 (centres unmarked) [drawing 63]
pest or weed control at 500 ppm [4]: 100%

CCOC(=O)N(C(=O)N1CC(n2cc(C#N)cn2)C(c2ccc(Cl)cc2)=N1)c1ccc(OC(F)(F)F)cc1 (centres unmarked) [drawing 64]
pest or weed control at 500 ppm [4]: 100%

N#Cc1cnn(C2CN(C(=O)Nc3ccc(OC(F)(F)F)cc3)N=C2c2ccc(Br)cc2)c1 (centres unmarked) [drawing 65]
pest or weed control at 500 ppm [4]: 100%

N#Cc1cnn(C2CN(C(=O)Nc3ccc(SC(F)(F)F)cc3)N=C2c2ccc(Br)cc2)c1 (centres unmarked) [drawing 66]
pest or weed control at 500 ppm [4]: 100%

N#Cc1cnn(C2CN(C(=O)Nc3ccc(S(=O)(=O)C(F)(F)F)cc3)N=C2c2ccc(Br)cc2)c1 (centres unmarked) [drawing 67]
pest or weed control at 500 ppm [4]: 100%

N#Cc1cnn(C2CN(C(=O)Nc3ccc(OC(F)(F)F)cc3)N=C2c2ccc(I)cc2)c1 (centres unmarked) [drawing 68]
pest or weed control at 500 ppm [4]: 100%

N#Cc1cnn(C2CN(C(=O)Nc3ccc(SC(F)(F)F)cc3)N=C2c2ccc(I)cc2)c1 (centres unmarked) [drawing 69]
pest or weed control at 500 ppm [4]: 100%

N#Cc1cnn(C2CN(C(=O)Nc3ccc(OC(F)(F)F)cc3)N=C2c2ccc(SC(F)(F)F)cc2)c1 (centres unmarked) [drawing 70]
pest or weed control at 500 ppm [4]: 100%

N#Cc1cnn(C2CN(C(=O)Nc3ccc(SC(F)(F)F)cc3)N=C2c2ccc(SC(F)(F)F)cc2)c1 (centres unmarked) [drawing 71]
pest or weed control at 500 ppm [4]: 100%

N#Cc1cnn(C2CN(C(=O)Nc3ccc(OC(F)(F)F)cc3)N=C2c2ccc(Cl)cc2)c1 (centres unmarked) [drawing 72]
Kill rate in % 7 d after infection ([5]; infection after 5 d): 100%
Kill rate in % 7 d after infection ([5]; infection after 12 d): 90%
Kill rate in % 7 d after infection ([5]; infection after 19 d): 100%

N#Cc1cnn(C2CN(C(=O)Nc3ccc(C(F)(F)F)cc3)N=C2c2ccc(Cl)cc2)c1 (centres unmarked) [drawing 73]
Kill rate in % 7 d after infection ([5]; infection after 5 d): 100%
Kill rate in % 7 d after infection ([5]; infection after 12 d): 100%
Kill rate in % 7 d after infection ([5]; infection after 19 d): 90%

N#Cc1cnn(C2CN(C(=O)Nc3ccc(SC(F)(F)F)cc3)N=C2c2ccc(Cl)cc2)c1 (centres unmarked) [drawing 74]
Kill rate in % 7 d after infection ([5]; infection after 5 d): 80%
Kill rate in % 7 d after infection ([5]; infection after 12 d): 70%
Kill rate in % 7 d after infection ([5]; infection after 19 d): 90%

N#Cc1cnn(C2CN(C(=O)Nc3ccc(OC(F)(F)F)cc3)N=C2c2ccc(Cl)cc2)c1 (centres unmarked) [drawing 75]
Kill rate in % 7 d after infection ([6]; infection after 5 d): infection after: 5^d 12^d 19^d 100 100 100%
Kill rate in % 7 d after infection ([6]; infection after 12 d): infection after: 5^d 12^d 19^d 100 100 100%
Kill rate in % 7 d after infection ([6]; infection after 19 d): infection after: 5^d 12^d 19^d 100 100 100%

N#Cc1cnn(C2CN(C(=O)Nc3ccc(C(F)(F)F)cc3)N=C2c2ccc(Cl)cc2)c1 (centres unmarked) [drawing 76]
Kill rate in % 7 d after infection ([6]; infection after 5 d): infection after: 5^d 12^d 19^d 100 100 100%
Kill rate in % 7 d after infection ([6]; infection after 12 d): infection after: 5^d 12^d 19^d 100 100 100%
Kill rate in % 7 d after infection ([6]; infection after 19 d): infection after: 5^d 12^d 19^d 100 100 100%

N#Cc1cnn(C2CN(C(=O)Nc3ccc(SC(F)(F)F)cc3)N=C2c2ccc(Cl)cc2)c1 (centres unmarked) [drawing 77]
Kill rate in % 7 d after infection ([6]; infection after 5 d): 90%
Kill rate in % 7 d after infection ([6]; infection after 12 d): 100%
Kill rate in % 7 d after infection ([6]; infection after 19 d): 100%

N#Cc1cnn(C2CN(C(=O)Nc3ccc(C(F)(F)F)cc3)N=C2c2ccc(Cl)cc2)c1 (centres unmarked) [drawing 86]
activity/kill rate in % after 14 d (Lucilia cuprina larvae; 20 ppm): 100/100%
activity/kill rate in % after 14 d (Lucilia cuprina larvae; 100 ppm): 100/100%

N#Cc1cnn(C2CN(C(=O)Nc3ccc(Cl)cc3)N=C2c2ccc(Cl)cc2)c1 (centres unmarked) [drawing 87]
activity/kill rate in % after 14 d (Lucilia cuprina larvae; 20 ppm): 100/100%
activity/kill rate in % after 14 d (Lucilia cuprina larvae; 100 ppm): 100/100%

N#Cc1cnn(C2CN(C(=O)Nc3ccc(SC(F)(F)F)cc3)N=C2c2ccc(Cl)cc2)c1 (centres unmarked) [drawing 88]
activity/kill rate in % after 14 d (Lucilia cuprina larvae; 20 ppm): 100/100%
activity/kill rate in % after 14 d (Lucilia cuprina larvae; 100 ppm): 100/100%

CCOC(=O)N(C(=O)N1CC(n2cc(C#N)cn2)C(c2ccc(Cl)cc2)=N1)c1ccc(OC(F)(F)F)cc1 (centres unmarked) [drawing 89]
activity/kill rate in % after 14 d (Lucilia cuprina larvae; 20 ppm): 100%

N#Cc1cnn(C2CN(C(=O)Nc3ccc([S+]([O-])C(F)(F)F)cc3)N=C2c2ccc(Cl)cc2)c1 (centres unmarked) [drawing 90]
activity/kill rate in % after 14 d (Lucilia cuprina larvae; 20 ppm): 100/100%
activity/kill rate in % after 14 d (Lucilia cuprina larvae; 100 ppm): 100/100%

N#Cc1cnn(C2CN(C(=O)Nc3ccc(OC(F)(F)F)cc3)N=C2c2ccc(Cl)cc2)c1 (centres unmarked) [drawing 97]
activity/kill rate in % (Periplaneta americana; 100 ppm): 25%

N#Cc1cnn(C2CN(C(=O)Nc3ccc(C(F)(F)F)cc3)N=C2c2ccc(Cl)cc2)c1 (centres unmarked) [drawing 98]
activity/kill rate in % (Periplaneta americana; 100 ppm): 50%

COC(=O)N(C(=O)N1CC(n2cc(C#N)cn2)C(c2ccc(Cl)cc2)=N1)c1ccc(OC(F)(F)F)cc1 (centres unmarked) [drawing 99]
activity/kill rate in % (Periplaneta americana; 20 ppm): 25%
activity/kill rate in % (Periplaneta americana; 100 ppm): 100%

CCOC(=O)N(C(=O)N1CC(n2cc(C#N)cn2)C(c2ccc(Cl)cc2)=N1)c1ccc(OC(F)(F)F)cc1 (centres unmarked) [drawing 100]
activity/kill rate in % (Periplaneta americana; 20 ppm): 25%
activity/kill rate in % (Periplaneta americana; 100 ppm): 75%

N#Cc1cnn(C2CN(C(=O)Nc3ccc(OC(F)(F)F)cc3)N=C2c2ccc(Br)cc2)c1 (centres unmarked) [drawing 101]
activity/kill rate in % (Periplaneta americana; 100 ppm): 25%

N#Cc1cnn(C2CN(C(=O)Nc3ccc(OC(F)(F)F)cc3)N=C2c2ccc(I)cc2)c1 (centres unmarked) [drawing 102]
activity/kill rate in % (Periplaneta americana; 100 ppm): 50%
